Columns and labels:
[1] = tested on: Clostridium tyrobutyricum strains; assay: Fermentation of Clostridium tyrobutyricum with an electron transfer mediator added to the P2 culture medium (Experimental Example 1); format: cell-based; details: for Enhancement of butyrate production by simply adding the mediator to the medium: simple addition, no reduction electrode
Description: The P2 culture medium (Qureshi and Blaschek 1999) of pH 6.4±0.1 containing sucrose of 20 g/L instead glucose was sterilized. The Methyl Viologen (MV) (E°′=−446 mV) (Aldrich, South Korea) was added to the sterilized P2 culture medium with the concentrations of 0.1 mM (embodiment 1-1), 0.4 mM (embodiment 1-2), 0.5 mM (embodiment 1-3), 1.0 mM (embodiment 1-4), 2.0 mM (embodiment 1-5), 5.0 mM (embodiment 1-6) and 10.0 mM (embodiment 1-7). The separated Clostridium tyrobutyricum strains were inoculated on the MV-added P2 culture medium and were cultured at 37° C. and 150 rpm.
The strains were cultured under the same conditions as the conditions of the embodiments 1-1 to 1-7 except for the strains which didn't have an added MV.
The strains were cultured under the same conditions as the conditions of the embodiments 1-1 to 1-7 except for the strains on which 0.1 mM and 0.5 mM of the Neutral Red (NR) (E°′=−325 mV) (Aldrich, South Korea) were added instead of the MV.
The strains were cultured under the same conditions as the conditions of the embodiments 1-1 to 1-7 except for the strains on which 0.5 mM of anthraquinone-1,5-disulfonic acid, AQDS) (E°′=−184 mV) (Aldrich, South Korea) was added instead of the MV.
The butyrate and acetate produced through the embodiments 1-1 to 1-7, the comparison example 1, the comparison examples 2-1 to 2-7 and the comparison examples 3-1 to 3-7 were analyzed by HP-INNOWax column (30 m×250 μm×0.25 μm, Agilent Technologies and the gas chromatography (GC, Agilent technology 6890N Network GC System) with the frame-ionized detector. The hydrogen and carbon dioxide were quantified by multiplying the gas composition with the increased gas volume. The gas composition percentage was analyzed by the GC having a heat conductivity detector. The consumed sucrose concentration was quantified by a high performance liquid chromatography (HPLC) (Hi-plex H, Agilent, Santa Clara, Calif.) with 5 mM of sulfuric acid as a mobile phase at the flow rate of 0.5 mLmin^−1. The growth of microorganisms was checked at 600 nm of absorbance by using Shimadzu UVmini-1240 spectrophotometer or was checked with the Chemical Oxygen Demand (COD, mg/L unit) induced by the base soluble COD from the total COD by using COD vials (C-mac, South Korea, concentration range of 10-1,500 mg/L). The obtained values were average values obtained as the experiments were repeatedly performed three times or four times under a corresponding condition.

[2] = tested on: Clostridium tyrobutyricum; assay: Fermentation of Clostridium tyrobutyricum in a bioelectrical reactor (BER) with reduction electrode and electron transfer mediator (Experimental Example 2); format: cell-based
Description: A Bioelectrical Reactor (BER) formed of Pyrex was manufactured, which was specially designed for the sake of the anaerobic bacteria culture by changing a little the H-type reactor with a dual chamber (450 mL each). The reduction electrode (cathode) was a graphite felt electrode (4.5 cm×12 cm), and the oxidation electrode (anode) was a Pt plate electrode (2.5 cm×5 cm). The reference electrode was Ag/AgCl, 3 M KCl (BASi, West Lafayette, Ind.) and was dipped at a portion of the reduction electrode. The portions of the oxidation electrode and the reduction electrode were separated by Nafion 117 positive ion-exchange membrane (Naracell-tech, South Korea). The biological gas was collected by a Tedlar bag connected with a stainless steel fitting inserted in a reduction electrode stopper. The temperature of the reactor was maintained at 37±1° C. by a heating tape (Daihan, South Korea). The temperature sensor was inserted into a partition of the oxidation electrode by way of the stainless steel stand rod.
The portion of the reduction electrode of the reactor has features in that the neutral red was filled with the P2 medium added with 0.1 mM, and the portion of the oxidation electrode was filled with hexacyanoferrate [K4(Fe(CN)6)·3H2O]. The BER operated under a constant reduction electrode potential of −400 mV (vs. Ag/AgCl). The above mentioned potential was set by the potentiostat/galvanostat (EG&G Princeton Applied Research, Model 273A, Princeton, N.J.) which could be controlled by a computer. So, the current between the oxidation electrode and the reduction electrode was monitored. The reduction voltage applied to the reduction electrode was determined from the redox peak in the cyclic voltammogram of the culture liquid to which the neutral red was added at the scan speed of 20 mV/s based on the reduction electrode versus Ag/AgCl. The reduction of the neutral red by the reduction electrode appeared as the color of the solution turned from the red (NRox) to the yellow (NRred) when it was balanced to the negative potential within 5-30 minutes. For the sake of pH-adjusted BER operation, pH was maintained at 6 by temporarily adding 3M NaOH.
The embodiment 3 was performed in the same manner as the embodiment 2 except for the adjustment of pH.
The embodiment 4 was performed in the same manner as the embodiment 2 except that the portion of the reduction electrode of the reactor was filed with the P2 medium added with the MV of 0.5 mM of concentration was operated under a constant reduction electrode potential of −750 mV (vs. Ag/AgCl). In case of the MV, the reduction had features in that the color of the solution turned from a colorlessness (MVox) to a purple color (MVred).

[3] = Embodiment 2: BER with neutral red 0.1 mM, −400 mV, pH 6 controlled
[4] = Embodiment 3: BER with neutral red 0.1 mM, −400 mV, no pH control
[5] = methyl viologen 0.1 mM (embodiment 1-1)
[6] = methyl viologen 0.4 mM (embodiment 1-2)
[7] = methyl viologen 0.5 mM (embodiment 1-3)
[8] = methyl viologen 1 mM (embodiment 1-4)
[9] = methyl viologen 2 mM (embodiment 1-5)
[10] = methyl viologen 5 mM (embodiment 1-6)
[11] = methyl viologen 10 mM (embodiment 1-7)
[12] = Embodiment 4: methyl viologen 0.5 mM, −750 mV

SMILES: Cc1cc2nc3ccc(N(C)C)cc3nc2cc1N.Cl [neutral red, Neutral Red]
- Enhancement of butyrate production by simply adding the mediator to the medium [1]: didn't make any effects
- Enhancement of butyrate production by simply adding the mediator to the medium ([1]; listed as NR): impossible to enhance the production of butyrate
- Acetate productivity (maximum productivity) [2, 3]: 0 g/L, h^−1
- Butyrate productivity (maximum productivity) [2, 3]: 0.28 ± 0.01 g/L, h^−1
- Butyrate yield [2, 3]: 0.44 ± 0.04 g butyrate/g sucrose
- Final butyrate concentration [2, 3]: 8.8 ± 0.9 g/L
- Maximum O.D. (600 nm) [2, 3]: 5.1 ± 0.7
- Specific growth rate [2, 3]: 0.87 ± 0.64 h⁻¹
- Sucrose uptake rate (maximum uptake rate) [2, 3]: 0.67 ± 0 g/L, h^−1
- Acetate productivity (maximum productivity) [2, 4]: 0 g/L, h^−1
- Butyrate productivity (maximum productivity) [2, 4]: 0.31 ± 0.07 g/L, h^−1
- Butyrate yield [2, 4]: 0.45 ± 0.02 g butyrate/g sucrose
- Final butyrate concentration [2, 4]: 6.7 ± 0.3 g/L
- Maximum O.D. (600 nm) [2, 4]: 5.0 ± 0.4
- Specific growth rate [2, 4]: 0.11 ± 0.01 h⁻¹
- Sucrose uptake rate (maximum uptake rate) [2, 4]: 0.64 ± 0.31 g/L, h^−1
- Production of butyrate (FIG. 4) ([2]; embodiment 2, neutral red reduction electrode system, increased from 5 g/L): 8 g/L
- Acetic acid production in the reduction electrode system ([2]; embodiments 2 and 3, neutral red): did not produce acetic acid
- Production of butyrate in the reduction electrode system ([2]; neutral red, embodiments 2 and 3, −400 mV vs. Ag/AgCl): increase in the production of butyrate

SMILES: O=C1c2cccc(S(=O)(=O)O)c2C(=O)c2cccc(S(=O)(=O)O)c21 [AQDS, anthraquinone-1,5-disulfonic acid]
- Enhancement of butyrate production by simply adding the mediator to the medium [1]: impossible to enhance the production of butyrate

SMILES: C[n+]1ccc(-c2cc[n+](C)cc2)cc1 [Methyl viologen, Methyl Viologen]
- Final concentration of butyrate as compared to the comparison group ([1]; 0.5 mM, simple addition without reduction electrode): about 1.5 times
- Production of butyrate among MV, NR and AQDS (FIG. 2) ([1]; mediators added at 0.5 mM): highest
- Bio-gas % vs. control [1, 5]: 82%
- Bio-gas vol [1, 5]: 110 mL
- Butyrate % vs. control [1, 5]: 115%
- Butyrate final conc. [1, 5]: 6.5 g/L
- OD (600 nm) ([1]; methyl viologen 0.1 mM (embodiment 1-1), P2 medium sucrose 20 g/L, 37° C.): 6.2 (±0.4)
- Bio-gas % vs. control [1, 6]: 80%
- Bio-gas vol [1, 6]: 107 mL
- Butyrate % vs. control [1, 6]: 128%
- Butyrate final conc. [1, 6]: 7.3 g/L
- OD (600 nm) [1, 6]: 6.3 (±0)^
- Bio-gas % vs. control [1, 7]: 65%
- Bio-gas vol [1, 7]: 87 mL
- Butyrate % vs. control [1, 7]: 150%
- Butyrate final conc. [1, 7]: 8.5 g/L
- OD (600 nm) [1, 7]: 5.8 (±0.3)
- Bio-gas % vs. control [1, 8]: 50%
- Bio-gas vol [1, 8]: 67 mL
- Butyrate % vs. control [1, 8]: 109%
- Butyrate final conc. [1, 8]: 6.2 g/L
- OD (600 nm) [1, 8]: 5.4 (±0.8)
- Bio-gas % vs. control [1, 9]: 34%
- Bio-gas vol [1, 9]: 46 mL
- Butyrate % vs. control [1, 9]: 112%
- Butyrate final conc. [1, 9]: 6.4 g/L
- OD (600 nm) [1, 9]: 3.9 (±0.9)
- Bio-gas % vs. control [1, 10]: 3%
- Bio-gas vol [1, 10]: 4 mL
- Butyrate % vs. control [1, 10]: 14%
- Butyrate final conc. [1, 10]: 0.8 g/L
- OD (600 nm) [1, 10]: 1.5 (±1.9)
- Bio-gas % vs. control [1, 11]: 3%
- Bio-gas vol [1, 11]: 4 mL
- Butyrate % vs. control [1, 11]: 12%
- Butyrate final conc. [1, 11]: 0.7 g/L
- OD (600 nm) [1, 11]: 0.2 (±0.1)
- Acetate productivity (maximum productivity) [2, 12]: 0.25 ± 0 g/L, h^−1
- Butyrate productivity (maximum productivity) [2, 12]: 0.34 ± 0.01 g/L, h^−1
- Butyrate yield [2, 12]: 0.43 ± 0.02 g butyrate/g sucrose
- Final butyrate concentration [2, 12]: 7.1 ± 0.4 g/L
- Maximum O.D. (600 nm) [2, 12]: 5.3 ± 0.4
- Specific growth rate [2, 12]: 0.10 ± 0.01 h⁻¹
- Sucrose uptake rate (maximum uptake rate) [2, 12]: 0.85 ± 0.05 g/L, h^−1
- Production of butyrate in the reduction electrode system ([2]; MV, embodiment 4, −750 mV vs. Ag/AgCl): didn't help enhance the production of butyrate
